How the values were obtained:
Format in all cases: in vivo
[1] = system: velvetleaf (Abutilon theophrasti); assay: Test G Pre-Emergence Protocol; settings: Abutilon theophrasti, pre-emergence, 312 h, evaluated after 13 days; for pest or weed control at 15.625 g/ha: 15.625 g ai/ha; for pest or weed control at 15.625 g/ha / pest or weed control at 250 g/ha: read-out: Velvetleaf damage rating (100=total damage to plant; 0=no damage to plant); for pest or weed control at 62.5 g/ha: 62.5 g ai/ha, 100=total damage to plant, 0=no damage to plant, read-out: plant damage rating, Velvetleaf; for pest or weed control at 250 g/ha: 250 g ai/ha
Outline: (§1)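 Glasshouse pre-emergence test: soil-sown seeds, sprayed after 1 d at 15.625, 62.5 or 250 g/ha. Conditions 24/16° C day/night, 14 h light, 65% humidity, watering twice daily. Rating 13 d post-spray (100 = total damage).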

[2] = system: giant foxtail (Setaria faberi); assay: Test G Pre-Emergence Protocol; settings: Setaria faberi, pre-emergence, 312 h, evaluated after 13 days; for pest or weed control at 15.625 g/ha: 15.625 g ai/ha; for pest or weed control at 15.625 g/ha / pest or weed control at 250 g/ha: read-out: Foxtail, Giant damage rating (100=total damage to plant; 0=no damage to plant); for pest or weed control at 62.5 g/ha: 62.5 g ai/ha, 100=total damage to plant, 0=no damage to plant, read-out: plant damage rating, Foxtail, Giant; for pest or weed control at 250 g/ha: 250 g ai/ha
Outline: as §1

[3] = system: barnyardgrass (Echinochloa crus-galli); assay: Test G Pre-Emergence Protocol; settings: Echinochloa crus-galli, pre-emergence, 312 h, evaluated after 13 days; for pest or weed control at 15.625 g/ha: 15.625 g ai/ha, read-out: Barnyard grass damage rating (100=total damage to plant; 0=no damage to plant); for pest or weed control at 62.5 g/ha: 62.5 g ai/ha, 100=total damage to plant, 0=no damage to plant, read-out: plant damage rating, Barnyardgrass; for pest or weed control at 250 g/ha: 250 g ai/ha, read-out: Barnyardgrass damage rating (100=total damage to plant; 0=no damage to plant)
Outline: as §1

[4] = system: ivy-leaved morning glory (Ipomoea hederacea); assay: Test G Pre-Emergence Protocol; settings: Ipomoea, pre-emergence, 312 h, evaluated after 13 days; for pest or weed control at 15.625 g/ha: 15.625 g ai/ha, read-out: Morning-glory, Ivy-leaved damage rating (100=total damage to plant; 0=no damage to plant); for pest or weed control at 62.5 g/ha: 62.5 g ai/ha, 100=total damage to plant, 0=no damage to plant, read-out: plant damage rating, Morningglory, Ivy-leaved; for pest or weed control at 250 g/ha: 250 g ai/ha, read-out: Morningglory, Ivy-leaved damage rating (100=total damage to plant; 0=no damage to plant)
Outline: as §1

corn (Zea mays) [5] = assay: Test G Pre-Emergence Protocol; settings: Zea mays, pre-emergence, 312 h, evaluated after 13 days; for plant injury at 15.625 g/ha: 15.625 g ai/ha; for plant injury at 15.625 g/ha / plant injury at 250 g/ha: read-out: Corn damage rating (100=total damage to plant; 0=no damage to plant); for plant injury at 62.5 g/ha: 62.5 g ai/ha, 100=total damage to plant, 0=no damage to plant, read-out: plant damage rating, Corn; for plant injury at 250 g/ha: 250 g ai/ha
Outline: as §1

[6] = system: redroot pigweed (Amaranthus retroflexus); assay: Test G Pre-Emergence Protocol; settings: Amaranthus retroflexus, pre-emergence, 312 h, evaluated after 13 days; for pest or weed control at 15.625 g/ha: 15.625 g ai/ha; for pest or weed control at 15.625 g/ha / pest or weed control at 250 g/ha: read-out: Pigweed, Redroot damage rating (100=total damage to plant; 0=no damage to plant); for pest or weed control at 62.5 g/ha: 62.5 g ai/ha, 100=total damage to plant, 0=no damage to plant, read-out: plant damage rating, Pigweed, Redroot; for pest or weed control at 250 g/ha: 250 g ai/ha
Outline: as §1

[7] = system: velvetleaf (Abutilon theophrasti); assay: Test G Post-Emergence Protocol; settings: Abutilon theophrasti, post-emergence, 312 h; for pest or weed control at 15.625 g/ha: 15.625 g ai/ha, evaluated after 13 days (100=total damage to plant; 0=no damage to plant), read-out: Velvetleaf damage rating; for pest or weed control at 62.5 g/ha: 62.5 g ai/ha, read-out: Velvetleaf damage rating (100=total damage to plant; 0=no damage to plant); for pest or weed control at 62.5 g/ha / pest or weed control at 250 g/ha: evaluated after 13 days; for pest or weed control at 250 g/ha: 250 g ai/ha, read-out: damage to plant, Velvetleaf (100=total damage to plant; 0=no damage to plant)
Outline: (§2)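 Scores run 0 (no damage) to 100 (total damage) and were taken 13 days after spraying. Plants had been raised in pots for 8 days under glasshouse control (24/16 °C, 14 h photoperiod, 65% humidity) and then treated at 15.625, 62.5 or 250 g/ha.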

[8] = system: giant foxtail (Setaria faberi); assay: Test G Post-Emergence Protocol; settings: Setaria faberi, post-emergence, 312 h; for pest or weed control at 15.625 g/ha: 15.625 g ai/ha, evaluated after 13 days (100=total damage to plant; 0=no damage to plant), read-out: Foxtail, Giant damage rating; for pest or weed control at 62.5 g/ha: 62.5 g ai/ha, read-out: Foxtail, Giant damage rating (100=total damage to plant; 0=no damage to plant); for pest or weed control at 62.5 g/ha / pest or weed control at 250 g/ha: evaluated after 13 days; for pest or weed control at 250 g/ha: 250 g ai/ha, read-out: damage to plant, Foxtail, Giant (100=total damage to plant; 0=no damage to plant)
Outline: as §2

[9] = system: barnyardgrass (Echinochloa crus-galli); assay: Test G Post-Emergence Protocol; settings: Echinochloa crus-galli, post-emergence, 312 h; for pest or weed control at 15.625 g/ha: 15.625 g ai/ha, evaluated after 13 days (100=total damage to plant; 0=no damage to plant), read-out: Barnyardgrass damage rating; for pest or weed control at 62.5 g/ha: 62.5 g ai/ha, read-out: Barnyardgrass damage rating (100=total damage to plant; 0=no damage to plant); for pest or weed control at 62.5 g/ha / pest or weed control at 250 g/ha: evaluated after 13 days; for pest or weed control at 250 g/ha: 250 g ai/ha, read-out: damage to plant, Barnyardgrass (100=total damage to plant; 0=no damage to plant)
Outline: as §2

[10] = system: ivy-leaved morning glory (Ipomoea hederacea); assay: Test G Post-Emergence Protocol; settings: Ipomoea, post-emergence, 312 h; for pest or weed control at 15.625 g/ha: 15.625 g ai/ha, evaluated after 13 days (100=total damage to plant; 0=no damage to plant), read-out: Morningglory, Ivy-leaved damage rating; for pest or weed control at 62.5 g/ha: 62.5 g ai/ha, read-out: Morningglory, Ivy-leaved damage rating (100=total damage to plant; 0=no damage to plant); for pest or weed control at 62.5 g/ha / pest or weed control at 250 g/ha: evaluated after 13 days; for pest or weed control at 250 g/ha: 250 g ai/ha, read-out: damage to plant, Morningglory, Ivy-leaved (100=total damage to plant; 0=no damage to plant)
Outline: as §2

corn (Zea mays) [11] = assay: Test G Post-Emergence Protocol; settings: Zea mays, post-emergence, 312 h; for plant injury at 15.625 g/ha: 15.625 g ai/ha, evaluated after 13 days (100=total damage to plant; 0=no damage to plant), read-out: Corn damage rating; for plant injury at 62.5 g/ha: 62.5 g ai/ha, read-out: Corn damage rating (100=total damage to plant; 0=no damage to plant); for plant injury at 62.5 g/ha / plant injury at 250 g/ha: evaluated after 13 days; for plant injury at 250 g/ha: 250 g ai/ha, read-out: damage to plant, Corn (100=total damage to plant; 0=no damage to plant)
Outline: as §2

[12] = system: redroot pigweed (Amaranthus retroflexus); assay: Test G Post-Emergence Protocol; settings: Amaranthus retroflexus, post-emergence, 312 h; for pest or weed control at 15.625 g/ha: 15.625 g ai/ha, evaluated after 13 days (100=total damage to plant; 0=no damage to plant), read-out: Pigweed, Redroot damage rating; for pest or weed control at 62.5 g/ha: 62.5 g ai/ha, read-out: Pigweed, Redroot damage rating (100=total damage to plant; 0=no damage to plant); for pest or weed control at 62.5 g/ha / pest or weed control at 250 g/ha: evaluated after 13 days; for pest or weed control at 250 g/ha: 250 g ai/ha, read-out: damage to plant, Pigweed, Redroot (100=total damage to plant; 0=no damage to plant)
Outline: as §2

| SMILES | pest or weed control at 15.625 g/ha [1] | pest or weed control at 62.5 g/ha [1] | pest or weed control at 250 g/ha [1] | pest or weed control at 15.625 g/ha [2] | pest or weed control at 62.5 g/ha [2] | pest or weed control at 250 g/ha [2] | pest or weed control at 15.625 g/ha [3] | pest or weed control at 62.5 g/ha [3] | pest or weed control at 250 g/ha [3] | pest or weed control at 15.625 g/ha [4] | pest or weed control at 62.5 g/ha [4] | pest or weed control at 250 g/ha [4] | plant injury at 15.625 g/ha (corn (Zea mays) [5]) | plant injury at 62.5 g/ha (corn (Zea mays) [5]) | plant injury at 250 g/ha (corn (Zea mays) [5]) | pest or weed control at 15.625 g/ha [6] | pest or weed control at 62.5 g/ha [6] | pest or weed control at 250 g/ha [6] | pest or weed control at 15.625 g/ha [7] | pest or weed control at 62.5 g/ha [7] | further results |
| --- | --- | --- | --- | --- | --- | --- | --- | --- | --- | --- | --- | --- | --- | --- | --- | --- | --- | --- | --- | --- | --- |
| CN1C[C@@H](c2ccc(C(F)(F)F)cc2)[C@H](C(=O)Nc2ncc(Cl)s2)C1=O (racemic) [Compound 1569] | 0% | 0% | 0% | 0% | 0% | 0% | 0% | 0% | 0% | 0% | 0% | 0% | 0% | 0% | 0% | 0% | 0% | 0% | 0% | 0% | pest or weed control at 250 g/ha [7]: 0%; pest or weed control at 15.625 g/ha [8]: 0%; pest or weed control at 62.5 g/ha [8]: 0%; pest or weed control at 250 g/ha [8]: 0%; pest or weed control at 15.625 g/ha [9]: 0%; pest or weed control at 62.5 g/ha [9]: 10%; pest or weed control at 250 g/ha [9]: 20%; pest or weed control at 15.625 g/ha [10]: 0%; pest or weed control at 62.5 g/ha [10]: 0%; pest or weed control at 250 g/ha [10]: 0%; plant injury at 15.625 g/ha (corn (Zea mays) [11]): 0%; plant injury at 62.5 g/ha (corn (Zea mays) [11]): 0%; plant injury at 250 g/ha (corn (Zea mays) [11]): 0%; pest or weed control at 15.625 g/ha [12]: 0%; pest or weed control at 62.5 g/ha [12]: 0%; pest or weed control at 250 g/ha [12]: 0% |
| CN1C[C@H](c2cccc3c2OC(F)(F)O3)[C@@H](C(=O)Nc2ccccc2F)C1=O (racemic) [Compound 1465] | 0% | 0% | 0% | 30% | 70% | 90% | 0% | 20% | 70% | 0% | 0% | 0% | 0% | 0% | 0% | 0% | 0% | 0% | 10% | 0% | pest or weed control at 250 g/ha [7]: 10%; pest or weed control at 15.625 g/ha [8]: 0%; pest or weed control at 62.5 g/ha [8]: 60%; pest or weed control at 250 g/ha [8]: 70%; pest or weed control at 15.625 g/ha [9]: 0%; pest or weed control at 62.5 g/ha [9]: 10%; pest or weed control at 250 g/ha [9]: 20%; pest or weed control at 15.625 g/ha [10]: 0%; pest or weed control at 62.5 g/ha [10]: 0%; pest or weed control at 250 g/ha [10]: 20%; plant injury at 15.625 g/ha (corn (Zea mays) [11]): 10%; plant injury at 62.5 g/ha (corn (Zea mays) [11]): 10%; plant injury at 250 g/ha (corn (Zea mays) [11]): 10%; pest or weed control at 15.625 g/ha [12]: 10%; pest or weed control at 62.5 g/ha [12]: 0%; pest or weed control at 250 g/ha [12]: 0% |

Reference: US12077503B2, “Substituted cyclic amides and their use as herbicides” (FMC CORPORATION, priority 2015, dated 2024)
